IC50 data for one molecule are collected here from ChEMBL document CHEMBL1154923 (J Med Chem, 2010).

The IC50 is the concentration that gives 50% inhibition. A higher IC50 goes with a need for much substance.

In the assay the target is T1, Rhodopsin kinase GRK7 (Homo sapiens, UniProt Q8WTQ7).
T1 sequence (Q8WTQ7 whole entry): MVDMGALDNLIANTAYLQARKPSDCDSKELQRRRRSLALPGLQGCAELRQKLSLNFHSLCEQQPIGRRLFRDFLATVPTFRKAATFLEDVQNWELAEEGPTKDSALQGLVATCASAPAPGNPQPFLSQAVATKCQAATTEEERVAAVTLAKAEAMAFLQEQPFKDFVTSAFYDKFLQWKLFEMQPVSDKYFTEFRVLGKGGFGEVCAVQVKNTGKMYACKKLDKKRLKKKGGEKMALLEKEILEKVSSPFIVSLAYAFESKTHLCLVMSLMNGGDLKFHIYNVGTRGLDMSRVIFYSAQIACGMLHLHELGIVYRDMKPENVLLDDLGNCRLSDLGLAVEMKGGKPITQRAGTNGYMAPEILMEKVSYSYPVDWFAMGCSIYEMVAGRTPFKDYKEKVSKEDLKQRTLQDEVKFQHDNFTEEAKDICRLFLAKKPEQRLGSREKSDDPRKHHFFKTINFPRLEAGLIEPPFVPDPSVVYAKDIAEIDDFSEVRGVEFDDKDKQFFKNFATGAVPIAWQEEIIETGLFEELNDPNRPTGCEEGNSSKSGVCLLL
Kind of assay: Inhibition of GRK7-mediated bovine tubulin phosphorylation by scintillation counting.

The molecule `O=C(N[C@@H]1CNCCC[C@H]1OC(=O)c1cc(O)c(C(=O)c2c(O)cccc2C(=O)O)c(O)c1)c1ccc(O)cc1` [BALANOL] came in with a concentration for half-maximal inhibition (IC50) of 180 nM.
